IC50 data for 15 compounds are collected here from ChEMBL document CHEMBL3400078, “Constituents of the stem barks of Ailanthus altissima and their potential to inhibit LPS-induced nitric oxide production” (Bioorg Med Chem Lett, 2015).

This assay relates to RAW264.7. Kind of assay: Antiinflammatory activity in mouse RAW264.7 cells assessed as decrease in LPS-induced NO production after 24 hrs by Griess assay. Type of assay: functional, cell-based. The following applies: RAW264.7, 24 h. (In general: Nitrite, measured by Griess reagent, commonly stands in for NO production.)

In general, IC50 refers to the concentration needed to halve the response being measured.

Consider `O=c1ccc2ncc(O[C@@H]3O[C@H](CO)[C@@H](O)[C@H](O)[C@H]3O[C@@H]3OC[C@](O)(CO)[C@H]3O)c3c4ccccc4n1c23`, for which the IC50 was found to be 63.5 µM. On to `C[C@@](O)(CC(=O)O)CC(=O)OC[C@H]1O[C@@H](Oc2cnc3ccc(=O)n4c5ccccc5c2c34)[C@H](O)[C@@H](O)[C@@H]1O`, for which the IC50 was determined as 85 µM. On to `C[C@@](O)(CC(=O)O)CC(=O)OC[C@H]1O[C@@H](Oc2cnc3ccc(=O)n4c5ccccc5c2c34)[C@H](O[C@@H]2OC[C@](O)(CO)[C@H]2O)[C@@H](O)[C@@H]1O`, for which the IC50 is over 100 µM. In the case of `C=C1[C@@H](O)[C@]2(O)OC[C@]34[C@H]2[C@@]2(C)[C@H](O)[C@@H](O[C@@H]5O[C@H](CO)[C@@H](O)[C@H](O)[C@H]5O)C=C(C)[C@@H]2C[C@H]3OC(=O)C[C@@H]14`, the IC50 worked out at 100 µM. For the compound `COc1cc(/C=C/C(=O)O)ccc1O[C@@H]1O[C@H](CO)[C@@H](O)[C@H](O)[C@H]1O`, the IC50 turned out to be 71.6 µM. The value for `COc1cc2ccc(=O)oc2c(OC)c1O` was over 100 µM; that for `COc1cc(C(=O)CCO)ccc1O` was 43.8 µM; that for `O=C(O)/C=C/c1ccc(O)cc1` [COUMARIC ACID] was 73.4 µM.

Consider `COc1cc(/C=C/C(=O)O)ccc1O` [FERULATE], for which the IC50 was over 100 µM. On to `CC(=N)NCCCC[C@H](N)C(=O)O` [L-NIL], for which the half-inhibitory concentration (IC50) is 15.8 µM.

With `O=C(O)c1ccc(O)cc1` [PARABEN], the IC50 came out at 72.8 µM. Consider `CC1=CC(=O)[C@@H](O)[C@]2(C)[C@H]3[C@@]4(O)C(=O)OC[C@@]35[C@@H](C[C@@H]12)OC(=O)C[C@H]5[C@H]4C` [SHINJUDILACTONE], for which the half-inhibitory concentration (IC50) came to 63.1 µM. As for `C=C1[C@H](O)[C@]2(O)OC[C@]34[C@H]2[C@@]2(C)[C@H](O)[C@@H](O)C=C(C)[C@@H]2C[C@H]3OC(=O)C[C@@H]14` [SHINJULACTONE A], the IC50 turned out to be 56.4 µM. For `COc1cc([C@H]2OC[C@H]3[C@@H]2CO[C@@H]3c2cc(OC)c(O)c(OC)c2)cc(OC)c1O` [SYRINGARESINOL], the half-inhibitory concentration (IC50) amounted to 21.6 µM. Take `COc1cc(C(=O)O)ccc1O` [VANILLIC ACID]: the 50% inhibitory concentration (IC50) was found to be 23.2 µM.
